Reference: US10668056B2, “Pharmaceutical composition comprising indole derivatives, process for preparation and use thereof” (VIVOLUX AB, priority 2015, dated 2020)
Where two headings read alike, the source gives them in different places.

Assays:
[1] = tested on: HeLa (Cervix Adenocarcinoma); assay: FMCA cytotoxicity, HeLa; format: cell-based, human; conditions: 72 h
Procedure: (§1) The inventors also set out to characterize activity of the compounds A, B and C in cell lines representing cancer of different origin. The specific assays used and the conclusions from the mechanistic evaluation have previously been described in detail (Zhang et al. 2014). Compounds A, B and C (See FIG. 4) were evaluated for cytotoxicity expressed as survival index (SI) in six human tumor cell lines using the cell based fluorometric micro culture cytotoxicity assay (FMCA) as previously described in detail (Lindhagen et al, 2008). The method is based on measurement of fluorescent fluorescein, generated from hydrolysis of FDA by viable cells with intact plasma membrane. The fluorescence is proportional to the number of intact viable cells.
(§2) The cell lines were cultivated in the respective cell medium recommended by the provider. The medium was supplemented with 10% heat-inactivated fetal bovine serum, 2 mmol/L L-glutamine, 100 μg/mL streptomycin and 100 U/mL penicillin (all from Sigma-Aldrich). The cell line was cultured at 37° C. in a humidified atmosphere containing 5% CO2.
(§3) FMCA analysis in brief, 2500 cells per well were seeded into 384-well microplates and incubated over night before treatment with compounds. Compounds were added using acoustic liquid transfer (Echo 550, LabCyte). The plates were incubated at 37° C. for 72 h, and then washed and FDA was added to the wells followed by 50 min of incubation at 37° C. The fluorescence, which is proportional to the number of living cells in each well, was measured at 485/520 nm in a Fluoroskan instrument (Labsystems, GMI, Ramsey, Minn.). Cell survival is presented as Survival Index (SI), defined as the fluorescence value in the compound-treated wells analysed as percentage of the value in the control wells, with blank values subtracted. Quality criteria included a signal/blank ratio >10 and a coefficient of variation (CV) in control and blank wells <30%. Graph Pad Prism (San Diego, Calif., USA). All experiments were performed twice, and each concentration was evaluated in quadruplicates in each experiment. […]

[2] = tested on: primary human tumor cell cultures, Colorectal cancer; conditions: 25 patients analyzed, 72 h
Procedure: (§4) Cells were seeded in the drug-prepared 384-well plates using the pipetting robot Precision 2000 (Bio-Tek Instruments Inc., Winooski, Vt.).

[3] = tested on: primary human tumor cell cultures, Small bowel; conditions: 1 patient analyzed, 72 h
Procedure: as §4

[4] = tested on: primary human tumor cell cultures, Appendix; conditions: 4 patients analyzed, 72 h
Procedure: as §4

[5] = tested on: primary human tumor cell cultures, PMP (Pseudomyxoma Peritonei); conditions: 50 patients analyzed, 72 h
Procedure: as §4

[6] = tested on: various cell lines (CCRF-CEM, RPMI-8226, A2780, FaDu, HT29, MCF7, HL-60) and primary human tumor cell cultures; conditions: FIG. 3
Procedure: as §4

[7] = tested on: primary human tumor cell cultures, Pancreas; conditions: 1 patient analyzed, 72 h
Procedure: as §4

[8] = tested on: primary human tumor cell cultures, Mesothelioma; conditions: 7 patients analyzed, 72 h
Procedure: as §4

[9] = tested on: primary human tumor cell cultures, Ovarian; conditions: 30 patients analyzed, 72 h
Procedure: as §4

[10] = tested on: primary human tumor cell cultures, Gastric; conditions: 9 patients analyzed, 72 h
Procedure: as §4

[11] = tested on: primary human tumor cell cultures, Renal; conditions: 13 patients analyzed, 72 h
Procedure: as §4

[12] = tested on: CCRF-CEM (Acute lymphoblastic leukemia); assay: FMCA cytotoxicity, CCRF-CEM; format: cell-based, human; conditions: 72 h
Procedure: as §1, §2, §3

RKO (Colon carcinoma) = assay: FMCA cytotoxicity, RKO; format: cell-based, human; conditions: 72 h
Procedure: as §1, §2, §3

HCT116 (Colon carcinoma) = assay: FMCA cytotoxicity, HCT116; format: cell-based, human; conditions: 72 h
Procedure: as §1, §2, §3

[13] = tested on: THP-1 (Acute Monocytic Leukemia); assay: FMCA cytotoxicity, THP-1; format: cell-based, human; conditions: 72 h
Procedure: as §1, §2, §3

[14] = tested on: HepG2 (Hepatocellular Carcinoma); assay: FMCA cytotoxicity, HepG2; format: cell-based, human; conditions: 72 h
Procedure: as §1, §2, §3

[15] = tested on: six human tumor cell lines; assay: FMCA cytotoxicity, six human tumor cell lines (overall); format: cell-based; conditions: Table 6 and FIG. 4
Procedure: as §1, §2, §3

[16] = same sample re-analysed after 2 days

Molecule `C/C(=N\Nc1nnc2c(n1)[nH]c1c(C)cccc12)c1ccccn1` [Compound A, 2-[(1E,Z)-1-(2-{6-methyl-5H-[1,2,4]triazino[5,6-b]indole-3-yl}hydrazine-1-ylidene)ethyl]-pyridine] has an IC50 [1] of roughly 20 µM, an IC50 [2] of 11 µM and an IC50 [3] of 5.4 µM. For the same molecule, the IC50 [4] was 21 µM, the IC50 [5] was 9.4 µM and the anti-cancer activity [6] was “broad anti-cancer activity”. It also gave an IC50 [7] of 6 µM, an IC50 [8] of 12 µM and an IC50 [9] of 5.7 µM. It also gave an IC50 [10] of 6.9 µM, an IC50 [11] of 164 µM and an IC50 [12] of less than 0.25 µM. The IC50 (RKO (Colon carcinoma)) was less than 0.25 µM, the IC50 (HCT116 (Colon carcinoma)) was roughly 1 µM and the IC50 [13] was less than 0.25 µM. It also gave an IC50 [14] of less than 0.25 µM, a Z-isomer content [16] of roughly 2% and a hydrolysis detected [16] of roughly 1%. For the same molecule, the Z-isomer content (sample preparation in 0.1% TFA/H2O, first analysis) was roughly 7% and the “activity on cancer cell lines” value [15] was “strong activity”.
